Results as given in patent US9120812B2, “Pyrimidooxazocine derivatives as mTOR-inhibitors” (SANOFI, priority 2012, dated 2015).
Like-named read-outs stand apart in the source and are kept apart here.

Experiments:
[1] = tested on: U87MG tumour cells; assay: Test of in vitro proliferation of U87MG tumour cells; type: cell-based; details: U87MG cells, 72 hours, read-out: U87 Cell Proliferation IC50
Description: Model 4: Test of in vitro Proliferation of U87MG Tumour Cells.
The cell growth is determined with the reagent CellTiter 96 AQueous One Solution Cell Proliferation Assay from Promega (Cat. No. G3581).

[2] = target: PI3Kα (p110α/p85α) (Homo sapiens (Human), UniProt P42336); assay: PI3Kα enzymatic test by measuring the consumption of ATP; type: biochemical
How it was run: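 ATP consumption read out by KinaseGlo luminescence after a 90 min reaction of 1.7 μg/ml PI3Kα (p110α/p85α) with 2 μM ATP and 50 μM PIP2, buffered at pH 7.5 (Tris, 10 mM MgCl2, 1 mM EGTA, 0.03% Chaps, 1 mM DTT). Threefold dilution series over ≥10 000-fold range yield IC50.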

[3] = tested on: Akt-pS473 in U87MG cells
[4] = target: mTOR (human recombinant aa mTOR 1360-2549) (Homo sapiens (Human), UniProt P42345); assay: mTOR enzymatic test by TR-FRET (phosphorylation of GFP-4EBP1); type: biochemical
How it was run: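 After a 30 min room-temperature kinase reaction, EDTA (10 mM final) and Tb-labelled phospho-Thr46 antibody (2 nM final) were added and incubated 60 min. Energy transfer from Tb to phosphorylated GFP-4EBP1 was read at 340 nm excitation, emissions 490/520 nm. Values derive from the 520/490 fluorescence ratio.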

[5] = Homo sapiens, U-87 MG, read-out: U87 Akt-pS473 % Inhibition or IC50, nM (IC50), U87MG cells

Sequence of PI3Kα (p110α/p85α) (P42336 whole entry): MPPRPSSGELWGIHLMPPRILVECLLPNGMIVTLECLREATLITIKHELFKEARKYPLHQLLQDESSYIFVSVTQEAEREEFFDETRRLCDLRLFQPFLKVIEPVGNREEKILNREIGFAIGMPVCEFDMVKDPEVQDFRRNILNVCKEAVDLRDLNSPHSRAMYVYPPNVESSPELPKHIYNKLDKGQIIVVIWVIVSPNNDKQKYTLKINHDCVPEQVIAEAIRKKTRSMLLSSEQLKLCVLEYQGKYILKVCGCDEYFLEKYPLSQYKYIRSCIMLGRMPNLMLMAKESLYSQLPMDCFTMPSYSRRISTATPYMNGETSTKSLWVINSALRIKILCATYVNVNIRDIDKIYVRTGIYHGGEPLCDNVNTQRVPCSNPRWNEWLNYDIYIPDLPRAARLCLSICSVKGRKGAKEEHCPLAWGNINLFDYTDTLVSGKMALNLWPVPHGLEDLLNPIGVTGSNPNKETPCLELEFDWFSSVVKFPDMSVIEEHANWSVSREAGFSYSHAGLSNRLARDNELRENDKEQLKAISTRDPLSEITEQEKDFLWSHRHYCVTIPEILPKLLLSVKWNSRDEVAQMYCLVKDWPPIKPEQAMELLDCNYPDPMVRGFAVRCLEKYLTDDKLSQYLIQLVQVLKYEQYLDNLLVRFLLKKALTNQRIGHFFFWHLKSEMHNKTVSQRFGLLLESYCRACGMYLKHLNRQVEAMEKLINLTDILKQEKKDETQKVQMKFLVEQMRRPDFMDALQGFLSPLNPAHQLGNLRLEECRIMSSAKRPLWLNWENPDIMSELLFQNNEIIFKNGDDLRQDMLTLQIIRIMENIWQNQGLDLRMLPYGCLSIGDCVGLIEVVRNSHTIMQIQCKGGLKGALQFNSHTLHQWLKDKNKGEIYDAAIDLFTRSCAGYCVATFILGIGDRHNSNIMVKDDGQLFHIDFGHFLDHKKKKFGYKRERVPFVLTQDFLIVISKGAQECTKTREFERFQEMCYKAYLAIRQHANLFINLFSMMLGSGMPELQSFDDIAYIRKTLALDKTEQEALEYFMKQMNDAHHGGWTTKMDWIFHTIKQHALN
Sequence of PI3Kα (p110α/p85α) (P27986 whole entry partner): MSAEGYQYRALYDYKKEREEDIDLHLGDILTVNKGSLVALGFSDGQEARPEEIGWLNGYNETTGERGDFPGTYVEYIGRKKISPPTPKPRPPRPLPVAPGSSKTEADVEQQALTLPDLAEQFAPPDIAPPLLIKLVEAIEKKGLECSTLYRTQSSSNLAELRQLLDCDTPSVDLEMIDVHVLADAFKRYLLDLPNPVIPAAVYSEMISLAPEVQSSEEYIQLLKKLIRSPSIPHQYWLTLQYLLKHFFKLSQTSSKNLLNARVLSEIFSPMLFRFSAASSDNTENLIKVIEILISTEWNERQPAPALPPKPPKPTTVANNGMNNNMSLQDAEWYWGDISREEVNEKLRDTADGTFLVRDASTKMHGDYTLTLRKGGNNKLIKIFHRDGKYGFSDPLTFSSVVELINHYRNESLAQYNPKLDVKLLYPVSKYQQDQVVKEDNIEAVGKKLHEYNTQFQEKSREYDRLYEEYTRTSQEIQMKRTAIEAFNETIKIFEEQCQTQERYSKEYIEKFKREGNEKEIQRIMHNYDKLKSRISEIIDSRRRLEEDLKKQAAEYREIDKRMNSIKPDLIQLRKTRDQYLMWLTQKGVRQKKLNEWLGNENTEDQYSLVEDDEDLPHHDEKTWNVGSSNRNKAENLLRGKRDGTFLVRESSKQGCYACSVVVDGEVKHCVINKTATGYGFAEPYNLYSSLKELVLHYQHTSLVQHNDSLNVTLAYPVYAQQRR
Sequence of mTOR (human recombinant aa mTOR 1360-2549) (P42345 1360-2549): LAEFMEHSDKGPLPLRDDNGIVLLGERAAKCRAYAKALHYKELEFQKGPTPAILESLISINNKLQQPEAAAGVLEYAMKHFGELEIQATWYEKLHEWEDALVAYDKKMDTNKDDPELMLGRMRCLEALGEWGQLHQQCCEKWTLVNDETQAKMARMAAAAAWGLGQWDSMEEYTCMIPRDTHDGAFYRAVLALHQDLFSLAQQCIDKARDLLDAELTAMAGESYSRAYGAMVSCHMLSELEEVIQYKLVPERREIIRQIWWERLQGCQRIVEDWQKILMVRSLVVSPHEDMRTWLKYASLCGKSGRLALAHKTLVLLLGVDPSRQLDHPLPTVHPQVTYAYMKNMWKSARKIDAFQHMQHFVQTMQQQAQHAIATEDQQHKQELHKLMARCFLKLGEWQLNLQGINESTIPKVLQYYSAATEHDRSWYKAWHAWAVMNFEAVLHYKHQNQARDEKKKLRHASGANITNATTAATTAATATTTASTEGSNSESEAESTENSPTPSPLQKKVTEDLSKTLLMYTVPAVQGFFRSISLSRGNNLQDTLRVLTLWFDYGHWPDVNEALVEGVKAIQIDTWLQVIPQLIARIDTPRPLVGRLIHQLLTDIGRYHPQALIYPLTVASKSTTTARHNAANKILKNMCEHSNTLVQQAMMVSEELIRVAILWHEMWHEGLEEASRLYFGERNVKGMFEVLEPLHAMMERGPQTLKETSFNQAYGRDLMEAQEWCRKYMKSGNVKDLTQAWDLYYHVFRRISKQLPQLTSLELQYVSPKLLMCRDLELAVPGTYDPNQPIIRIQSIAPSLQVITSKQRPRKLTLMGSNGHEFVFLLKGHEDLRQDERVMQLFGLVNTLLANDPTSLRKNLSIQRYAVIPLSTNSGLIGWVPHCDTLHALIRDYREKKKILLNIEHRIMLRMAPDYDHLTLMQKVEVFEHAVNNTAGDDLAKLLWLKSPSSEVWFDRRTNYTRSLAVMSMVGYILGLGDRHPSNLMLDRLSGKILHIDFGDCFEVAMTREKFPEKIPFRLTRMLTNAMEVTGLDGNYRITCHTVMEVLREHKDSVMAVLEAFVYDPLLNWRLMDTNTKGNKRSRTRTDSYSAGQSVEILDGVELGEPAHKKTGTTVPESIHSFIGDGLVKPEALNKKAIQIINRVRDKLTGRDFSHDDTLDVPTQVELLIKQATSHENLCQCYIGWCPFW

Row | Compound | IC50 ([1]; Homo sapiens, U-87 MG, 72 h) [nM] | PI3Ka IC50 [2] [nM] | IC50 [3, 5] [nM] | IC50 [4] [nM] | IC50 [1] [nM] | IC50 ([3]; read-out: U87 Akt-pS473 % Inhibition or IC50, nM (IC50), U87MG cells) [nM]
1 | CCN1CC(C)(C)Oc2nc(N3CCOC[C@@H]3C)nc(-c3ccc(NC(=O)Nc4ccon4)c(C)c3)c2C1=O [Example 26, 1-{4-[6-ethyl-8,8-dimethyl-2-((S)-3-methylmorpholin-4-yl)-5-oxo-5,6,7,8-tetrahydro-9-oxa-1,3,6-triazabenzocyclohepten-4-yl]-2-methylphenyl}-3-isoxazol-3-ylurea] | 3570 | 3860 | > 1000 | 112 |  | 
2 | CCN1CC(C)(C)Oc2nc(N3C4CCC3COC4)nc(-c3ccc(NC(=O)NC)c(F)c3)c2C1=O [Example 207, 1-{4-[6-Ethyl-8,8-dimethyl-2-(3-oxa-8-azabicyclo[3.2.1]oct-8-yl)-5-oxo-5,6,7,8-tetrahydro-9-oxa-1,3,6-triazabenzocyclohepten-4-yl]-2-fluorophenyl}-3-methylurea] | 74 | >10000 | 19 | 18 |  | 
3 | COc1ccnc(NC(=O)Nc2ccc(-c3nc(N4CC5CCC(C4)O5)nc4c3C(=O)N(C)CC(C)(C)O4)cc2)c1 [Example 21, 1-(4-methoxypyridin-2-yl)-3-{4-[6,8,8-trimethyl-2-(8-oxa-3-azabicyclo[3.2.1]oct-3-yl)-5-oxo-5,6,7,8-tetrahydro-9-oxa-1,3,6-triazabenzocyclohepten-4-yl]phenyl}urea] | 549 | >10000 | 51 | 15 |  | 
4 | CCN1CC(C)(C)Oc2nc(N3CC4CCC(C3)O4)nc(-c3ccc(NC(=O)Nc4ccc(C(=O)N(C)CCN(C)C)cc4)cc3)c2C1=O [Example 176, N-(2-Dimethylaminoethyl)-4-(3-{4-[6-ethyl-8,8-dimethyl-2-(8-oxa-3-azabicyclo[3.2.1]oct-3-yl)-5-oxo-5,6,7,8-tetrahydro-9-oxa-1,3,6-triazabenzocyclohepten-4-yl]phenyl}ureido)-N-methylbenzamide] | 83 | 100 | 314 | 69 |  | 
5 | CCN1CC(C)(C)Oc2nc(N3CCOC[C@@H]3C)nc(-c3ccc(NC(=O)Nc4cc(OC)ccn4)cc3F)c2C1=O [Example 242, 1-{4-[6-Ethyl-8,8-dimethyl-2-((S)-3-methylmorpholin-4-yl)-5-oxo-5,6,7,8-tetrahydro-9-oxa-1,3,6-triazabenzocyclohepten-4-yl]-3-fluorophenyl}-3-(4-methoxypyridin-2-yl)urea] | 2300 | >10000 | 770 | 89 |  | 
6 | CCNC(=O)Nc1ccc(-c2nc(N3CC4CCC(C3)O4)nc3c2C(=O)N(CCC(=O)N(C)C)CC(C)(C)O3)cc1 [Example 8, 3-[4-[4-(3-ethylureido)phenyl]-8,8-dimethyl-2-(8-oxa-3-azabicyclo[3.2.1]oct-3-yl)-5-oxo-7,8-dihydro-5H-9-oxa-1,3,6-triazabenzocyclohepten-6-yl]-N,N-dimethylpropionamide] | 3810 | >10000 | 537 | 44 |  | 
7 | CCN1CC(C)(C)Oc2nc(N3CCOC[C@@H]3C)nc(-c3ccc(NC(=O)OCC(C)(C)O)cc3)c2C1=O [Example 214, {4-[6-Ethyl-8,8-dimethyl-2-((S)-3-methylmorpholin-4-yl)-5-oxo-5,6,7,8-tetrahydro-9-oxa-1,3,6-triazabenzocyclohepten-4-yl]phenyl}carbamic acid 2-hydroxy-2-methylpropyl ester] | > 10000 | >10000 | > 1000 | 2450 |  | 
8 | CCN1CC(C)(C)Oc2nc(N3CCOC[C@@H]3C)nc(-c3ccc(NC(=O)Nc4cc(C)nc(C)n4)cc3)c2C1=O [Example 91, 1-(2,6-Dimethylpyrimidin-4-yl)-3-{4-[6-ethyl-8,8-dimethyl-2-((S)-3-methylmorpholin-4-yl)-5-oxo-5,6,7,8-tetrahydro-9-oxa-1,3,6-triazabenzocyclohepten-4-yl]phenyl}urea] | 410 | 4640 | 47 | 53 |  | 
9 | CCN1CC(C)(C)Oc2nc(N3CC4CCC(C3)O4)nc(-c3ccc(NC(=O)Nc4cccnc4)cc3)c2C1=O [Example 112, 1-{4-[6-Ethyl-8,8-dimethyl-2-(8-oxa-3-azabicyclo[3.2.1]oct-3-yl)-5-oxo-5,6,7,8-tetrahydro-9-oxa-1,3,6-triazabenzocyclohepten-4-yl]phenyl}-3-pyridin-3-ylurea] | 154 | 2660 | 24 | 20 |  | 
10 | CCN1CC(C)(C)Oc2nc(N3CC4CCC(C3)O4)nc(-c3ccc(NC(=O)Nc4cnc(OC)cn4)cc3)c2C1=O [Example 198, 1-{4-[6-Ethyl-8,8-dimethyl-2-(8-oxa-3-azabicyclo[3.2.1]oct-3-yl)-5-oxo-5,6,7,8-tetrahydro-9-oxa-1,3,6-triazabenzocyclohepten-4-yl]phenyl}-3-(5-methoxypyrazin-2-yl)urea] | 318 | >10000 | 44 | 57 |  | 
11 | CCN1CC(C)(C)Oc2nc(N3CCOC[C@@H]3C)nc(-c3ccc(NC(=O)Nc4ccc(C)cn4)cc3)c2C1=O [Example 169, 1-{4-[6-Ethyl-8,8-dimethyl-2-((S)-3-methylmorpholin-4-yl)-5-oxo-5,6,7,8-tetrahydro-9-oxa-1,3,6-triazabenzocyclohepten-4-yl]phenyl}-3-(5-methylpyridin-2-yl)urea] |  | 1450 |  | 31 | 299 | 26
12 | CCN1CC(C)(C)Oc2nc(N3CCOC[C@@H]3C)nc(-c3ccc(NC(=O)Nc4cnc(N5CCOCC5)cn4)cc3)c2C1=O [Example 232, 1-{4-[6-Ethyl-8,8-dimethyl-2-((S)-3-methylmorpholin-4-yl)-5-oxo-5,6,7,8-tetrahydro-9-oxa-1,3,6-triazabenzocyclohepten-4-yl]phenyl}-3-(5-morpholin-4-ylpyrazin-2-yl)urea] | 95 | 5630 | 26 | 32 |  | 
13 | Cc1cc(NC(=O)Nc2ccc(-c3nc(N4C5CCC4COC5)nc4c3C(=O)N(C)CC(C)(C)O4)cc2F)ccn1 [Example 59, 1-{2-Fluoro-4-[6,8,8-trimethyl-2-(3-oxa-8-azabicyclo[3.2.1]oct-8-yl)-5-oxo-5,6,7,8-tetrahydro-9-oxa-1,3,6-triazabenzocyclohepten-4-yl]phenyl}-3-(2-methylpyridin-4-yl)urea] | 42 | 4200 | 36 | 67 |  | 
14 | CCN1CC(C)(C)Oc2nc(N3CC4CCC(C3)O4)nc(-c3ccc(Nc4nnc(C)[nH]4)c(F)c3)c2C1=O [Example 152, 6-Ethyl-4-[3-fluoro-4-(5-methyl-4H-[1,2,4]triazol-3-ylamino)phenyl]-8,8-dimethyl-2-(8-oxa-3-azabicyclo[3.2.1]oct-3-yl)-7,8-dihydro-6H-9-oxa-1,3,6-triazabenzocyclohepten-5-one] | 2680 | >10000 | 257 | 348 |  | 
15 | CCN1CC(C)(C)Oc2nc(N3CCOC[C@@H]3C)nc(-c3ccc(NC(=O)Nc4ccn(C)n4)c(F)c3)c2C1=O [Example 166, 1-{4-[6-Ethyl-8,8-dimethyl-2-((S)-3-methylmorpholin-4-yl)-5-oxo-5,6,7,8-tetrahydro-9-oxa-1,3,6-triazabenzocyclohepten-4-yl]-2-fluorophenyl}-3-(1-methyl-1H-pyrazol-3-yl)urea] | 1270 | 2300 | 278 | 86 |  | 
